The source made the active and inactive calls. No rule for the calls is given here.

The target of the test is intestinal alkaline phosphatase Alpi (Mus musculus). As to the kind of experiment: inhibition of murine Alpi phosphatase – biochemical, luminescence, SAR follow-up (AID 493135). The settings on record: purified mouse IAP, luminescent substrate readout.
The IC50 is the midpoint of a concentration-inhibition curve. For the compound `CN1CCC(=NNC(=O)c2cc(O)c(O)c(O)c2)CC1`, the IC50 is 38.7 µM.

With `NS(=O)(=O)c1ccc(NC(=S)NCCC(c2ccccc2)c2ccccc2)cc1`, the IC50 was > 100 µM (inactive).

Regarding `S=C(NCCC(c1ccccc1)c1ccccc1)Nc1cccc(Cl)c1`, the IC50 is > 100 µM (inactive).

For `Cc1c(Cl)cccc1NC(=S)NCCC(c1ccccc1)c1ccccc1`, the IC50 is > 100 µM (inactive).

With `Cc1nn(C(C)C)c(C)c1CN1CCC(C(=O)Nc2cccc(-c3cccc(F)c3)c2)CC1`, the IC50 was > 100 µM (inactive).

As for `Cc1cccc(NC(=S)NCCC(c2ccccc2)c2ccccc2)c1C`, the IC50 was > 100 µM (inactive).

On to `CCc1ccccc1Nc1nc(-c2ccc(O)c(O)c2)cs1`, for which the IC50 was 1.55 µM.

For `Cc1c(CN2CCC(C(=O)Nc3cccc(-c4cccc(Cl)c4)c3)CC2)cnn1C`, the IC50 is > 100 µM (inactive).

As for `C=CCn1cc(CN2CCC(C(=O)Nc3cccc(-c4cccc(F)c4)c3)CC2)c(C)n1`, the IC50 is > 100 µM (inactive).

For the compound `Fc1ccccc1NC(=S)NCCC(c1ccccc1)c1ccccc1`, the IC50 is > 100 µM (inactive).

As for `COc1cccc(-c2cccc(NC(=O)C3CCN(Cc4ccc(CO)o4)CC3)c2)c1`, the IC50 is > 100 µM (inactive).

Take `COc1cc(NC(=S)NCCC(c2ccccc2)c2ccccc2)cc(OC)c1`: the IC50 is > 100 µM (inactive).

Take `S=C(NCCC(c1ccccc1)c1ccccc1)Nc1ccc(Nc2ccccc2)cc1`: the IC50 is > 100 µM (inactive).

As for `CCn1nc(C)c(CN2CCC(C(=O)Nc3cccc(-c4cccc(Cl)c4)c3)CC2)c1C`, the IC50 is > 100 µM (inactive).

As to `Cn1cc(CN2CCC(C(=O)Nc3cccc(-c4cccc(Cl)c4)c3)CC2)cn1`, the IC50 was > 100 µM (inactive).

In the case of `COc1cc([N+](=O)[O-])ccc1NC(=S)NCCC(c1ccccc1)c1ccccc1`, the IC50 was > 100 µM (inactive).

For the compound `Fc1ccc(NC(=S)NCCC(c2ccccc2)c2ccccc2)cc1Cl`, the IC50 is > 100 µM (inactive).

In the case of `S=C(NCCC(c1ccccc1)c1ccccc1)Nc1ccccc1`, the IC50 is > 100 µM (inactive).

As for `CCCn1ncc(CN2CCC(C(=O)Nc3cccc(-c4cccc(F)c4)c3)CC2)c1C`, the IC50 was > 100 µM (inactive).

Consider `O=C(Nc1cccc(-c2cccc(Cl)c2)c1)C1CCN(Cc2ccc(CO)o2)CC1`, for which the IC50 was > 100 µM (inactive).

As to `COc1cccc(-c2cccc(NC(=O)C3CCN(Cc4ccc(C)o4)CC3)c2)c1`, the IC50 is > 100 µM (inactive).

As for `Cc1ccc(C)c(NC(=S)NCCC(c2ccccc2)c2ccccc2)c1`, the IC50 is > 100 µM (inactive).

`CCn1cc(CN2CCC(C(=O)Nc3cccc(-c4cccc(OC)c4)c3)CC2)c(C)n1`: the IC50 is > 100 µM (inactive).

In the case of `Cc1ccc(CN2CCC(C(=O)Nc3cccc(-c4cccc(F)c4)c3)CC2)o1`, the IC50 is > 100 µM (inactive).

On to `Cc1ccc(NC(=S)NCCC(c2ccccc2)c2ccccc2)cc1C`, for which the IC50 is > 100 µM (inactive).

Take `CCN1CCN(S(=O)(=O)c2ccc3[nH]c(=O)oc3c2)CC1`: the IC50 is > 100 µM (inactive).

In the case of `FC(F)(F)c1cccc(NC(=S)NCCC(c2ccccc2)c2ccccc2)c1`, the IC50 is > 100 µM (inactive).

For `O=C(Nc1cccc(-c2cccc(F)c2)c1)C1CCN(Cc2ccc(CO)o2)CC1`, the IC50 was > 100 µM (inactive).

Take `Cc1c(Cl)cccc1Nc1nc(-c2ccc(O)c(O)c2)cs1`: the IC50 is 7.51 µM.

For `Cc1cc(Cl)ccc1NC(=S)NCCC(c1ccccc1)c1ccccc1`, the IC50 was > 100 µM (inactive).

As for `CCn1cc(CN2CCC(C(=O)Nc3cccc(-c4cccc(OC)c4)c3)CC2)cn1`, the IC50 is > 100 µM (inactive).

On to `Cc1ccc(NC(=O)CCNS(=O)(=O)c2ccc3[nH]c(=O)oc3c2)cc1C`, for which the IC50 is 87.1 µM.

On to `COC(=O)c1cc(NC(=S)NCCC(c2ccccc2)c2ccccc2)cc(C(=O)OC)c1`, for which the IC50 was > 100 µM (inactive).

`O=C(Nc1cccc(-c2cccc(Cl)c2)c1)C1CCN(C2CCC2)CC1`: the IC50 is > 100 µM (inactive).

For `CC(C)N1CCC(=NNC(=O)c2cc(O)c(O)c(O)c2)CC1`, the IC50 is 24.9 µM.

On to `COc1ccc(Cl)cc1Nc1nc(-c2ccc(O)c(O)c2)cs1`, for which the IC50 was 1.42 µM.

Take `CN(C)S(=O)(=O)c1cccc(NC(=S)NCCC(c2ccccc2)c2ccccc2)c1`: the IC50 is > 100 µM (inactive).

`Oc1ccc(-c2csc(Nc3cccc4ccccc34)n2)cc1O`: the IC50 was 1.11 µM.

For the compound `COc1ccc(NC(=S)NCCC(c2ccccc2)c2ccccc2)cc1`, the IC50 was > 100 µM (inactive).

Take `S=C(NCCC(c1ccccc1)c1ccccc1)Nc1ccc(Cl)cc1Cl`: the IC50 was > 100 µM (inactive).

For `CCn1cc(CN2CCC(C(=O)Nc3cccc(-c4cccc(F)c4)c3)CC2)cn1`, the IC50 was > 100 µM (inactive).

Regarding `COCc1ccc(CN2CCC(C(=O)Nc3cccc(-c4cccc(Cl)c4)c3)CC2)o1`, the IC50 is > 100 µM (inactive).

In the case of `CCn1nc(C)c(CN2CCC(C(=O)Nc3cccc(-c4cccc(F)c4)c3)CC2)c1C`, the IC50 is > 100 µM (inactive).

With `O=C(CN1C(=O)/C(=C\c2ccco2)SC1=S)Nc1ccccc1C(=O)O`, the half-inhibitory concentration (IC50) was 58.7 µM.

For the compound `Cc1cc(NC(=O)CCNS(=O)(=O)c2ccc3[nH]c(=O)oc3c2)ccc1Br`, the 50% inhibitory concentration (IC50) was 81.8 µM.

On to `Cn1cc(CN2CCC(C(=O)Nc3cccc(-c4cccc(F)c4)c3)CC2)cn1`, for which the IC50 was > 100 µM (inactive).

As to `CCn1c(SCC(=O)c2ccc(O)c(O)c2)nnc1-c1ccccc1OC`, the IC50 is 1.9 µM.

With `O=C(CN1C(=O)/C(=C/c2ccco2)SC1=S)Nc1cccc(C(=O)O)c1`, the IC50 is 8.17 µM.

On to `CC(C)c1ccccc1NC(=S)NCCC(c1ccccc1)c1ccccc1`, for which the IC50 was > 100 µM (inactive).

Consider `COc1ccc(C(=O)CSc2n[nH]c(-c3ccccc3)n2)cc1OC`, for which the IC50 is > 100 µM (inactive).

Turning to `CC(C)n1cc(CN2CCC(C(=O)Nc3cccc(-c4cccc(F)c4)c3)CC2)cn1`, the IC50 is > 100 µM (inactive).

Regarding `Cc1cc(=O)oc2cc(NC(=S)NCCC(c3ccccc3)c3ccccc3)ccc12`, the IC50 is > 100 µM (inactive).

As to `Cc1cc(C)cc(NC(=S)NCCC(c2ccccc2)c2ccccc2)c1`, the IC50 was > 100 µM (inactive).

As for `S=C(NCCC(c1ccccc1)c1ccccc1)Nc1ccc(Cl)c(Cl)c1`, the IC50 is > 100 µM (inactive).

On to `O=[N+]([O-])c1ccc(NC(=S)NCCC(c2ccccc2)c2ccccc2)cc1`, for which the IC50 was > 100 µM (inactive).

Consider `O=C(CN1C(=O)/C(=C/c2ccco2)SC1=S)Nc1ccc(C(=O)O)cc1`, for which the half-maximal inhibitory concentration (IC50) is 7.97 µM.

For the compound `Cc1nn(C)c(Cl)c1CN1CCC(C(=O)Nc2cccc(-c3cccc(F)c3)c2)CC1`, the IC50 was > 100 µM (inactive).

In the case of `S=C(NCCC(c1ccccc1)c1ccccc1)Nc1ccc(Cl)cc1`, the IC50 was > 100 µM (inactive).

As for `CCn1ncc(CN2CCC(C(=O)Nc3cccc(-c4cccc(F)c4)c3)CC2)c1C`, the IC50 is > 100 µM (inactive).

As to `COc1cccc(NC(=S)NCCC(c2ccccc2)c2ccccc2)c1`, the IC50 is > 100 µM (inactive).

As to `CCn1cc(CN2CCC(C(=O)Nc3cccc(-c4cccc(Cl)c4)c3)CC2)cn1`, the IC50 was > 100 µM (inactive).

As for `CCOC(=O)c1ccc(NC(=S)NCCC(c2ccccc2)c2ccccc2)cc1`, the IC50 was > 100 µM (inactive).

On to `CC(C)n1cc(CN2CCC(C(=O)Nc3cccc(-c4cccc(Cl)c4)c3)CC2)cn1`, for which the IC50 was > 100 µM (inactive).

Turning to `COc1ccc(Cl)cc1NC(=S)NCCC(c1ccccc1)c1ccccc1`, the IC50 was > 100 µM (inactive).

Turning to `Cc1ccc(NC(=S)NCCC(c2ccccc2)c2ccccc2)cc1`, the IC50 was > 100 µM (inactive).

On to `CC1(c2ccccc2)CC(C)(C)N(C(=S)Nc2ccccc2)c2ccccc21` (stereo not drawn), for which the IC50 is > 100 µM (inactive).

As for `C=CCn1cc(CN2CCC(C(=O)Nc3cccc(-c4cccc(Cl)c4)c3)CC2)c(C)n1`, the IC50 is > 100 µM (inactive).

For `O=S(=O)(Nc1ncccn1)c1ccc(NC(=S)NCCC(c2ccccc2)c2ccccc2)cc1`, the IC50 was > 100 µM (inactive).

The values above are taken from PubChem BioAssay AID493135 (Sanford-Burnham Center for Chemical Genomics, 2011).
